According to BindingDB's records for PubMed 38477709 (Washington University School of Medicine):

Target: Coagulation factor X (Homo sapiens, UniProt P00742)
Assay: Inhibition of factor Xa (unknown origin) using Bz-lle-Glu-Gly-Arg-pNA as chromogenic substrate preincubated for 30 mins followed by substrate addition by absorbance based analysis

Coagulation factor X, sequence (P00742 41-179 limits assumed): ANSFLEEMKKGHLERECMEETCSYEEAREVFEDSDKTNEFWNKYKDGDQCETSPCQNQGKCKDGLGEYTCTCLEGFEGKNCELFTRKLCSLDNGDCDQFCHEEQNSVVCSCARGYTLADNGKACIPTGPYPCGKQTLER
Coagulation factor X, sequence (P00742 235-488 limits assumed): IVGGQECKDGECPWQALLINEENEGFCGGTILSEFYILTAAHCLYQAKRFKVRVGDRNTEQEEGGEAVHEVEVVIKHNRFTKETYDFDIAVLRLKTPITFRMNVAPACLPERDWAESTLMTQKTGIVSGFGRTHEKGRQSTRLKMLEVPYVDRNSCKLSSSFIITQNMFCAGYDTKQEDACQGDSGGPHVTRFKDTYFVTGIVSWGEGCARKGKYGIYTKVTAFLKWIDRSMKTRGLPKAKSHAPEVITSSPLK

| IC50 [µM] | Compound |
| --- | --- |
| > 20 | CC(=O)N[C@H]1Cc2ccc(cc2)OCC=CCNC(=O)C[C@@H](C(=O)N[C@@H](CCCNC(=N)N)C(=O)c2nc3ccccc3s2)NC(=O)[C@H](CC(C)C)NC1=O |
| > 20 | CC(=O)N[C@H]1Cc2ccc(cc2)OCC=CCNC(=O)CC[C@@H](C(=O)N[C@@H](CCCNC(=N)N)C(=O)c2nc3ccccc3s2)NC(=O)[C@H](CC(C)C)NC1=O |
